Several values for one entry are separate records, joined by “and”; a condition that tells them apart may be missing. Identical values can stand only once. Like-named read-outs stand apart in the source and are kept apart here.
Legend:
[1] = tested on: patients with mild to moderate dementia of the Alzheimer's type; settings: 10 mg donepezil, 24-week (6-month) administration; rating score 0 to 70 points; cited from earlier work
[2] = tested on: cognitive functions of women aged 65 years or more
Experimental: (§1) Elderly women living in a community (n=13, 68.0±3.0 years old, body weight: 66.9±10.3 kg, height: 161.1±5.8 cm) volunteered for participants for the present open-label preliminary experiment (registered in ClinicalTrials.gov, NCT02830854). Individuals with a serious disease or a mental disease had been excluded as they met the exclusion criteria. This study was conducted according to the guideline of the Declaration of Helsinki, and the local ethics committee approved the protocol of the present clinical study. The participants all gave informed consent, and were each asked to keep their usual lifestyle and take meals as usual during the study. […] Mini Mental State Examination (MMSE) scores before the initiation of the study and 4 weeks thereafter were used to evaluate the therapeutic effect. In addition, assessment of other cognitive ability markers and evaluation of side effects were conducted based on the results before the initiation of the study and 4 weeks thereafter. The cognitive functions of the participants were evaluated by using the MMSE and the Alzheimer's Disease Assessment Scale-Cognitive subscale (ADAS-Cog). The MMSE is a 30-point questionnaire widely used in clinical practice to determine the degree of cognitive impairment of an elderly individual. The ADAS-Cog is a method, consisting of 11 tasks, of assessing cognitive abilities, and determines memory impairment, language impairment, praxis impairment, attention deficits, and other cognitive abilities to test for dementia. In addition to the assessments, the participants were asked to report adverse events during the study through self-assessment or an open-ended questionnaire on side effects (e.g., queasy feeling, headache). Statistical significance was determined by using a Wilcoxon signed-rank test (before the initiation of the study vs. 4 weeks thereafter). If p≤0.05 was satisfied, the result was considered statistically significant.

[3] = 4% hydrogen gas 15 minutes per day over 4 weeks
Experimental: as §1

SMILES	Reduction of ADAS-Cog score from the score at initiation of administration [1]	ADAS-Cog Language reproduction test After 4 weeks ([2]; 4% H2 inhaled 15 minutes per day over 4 weeks, baseline 3.6 ± 1.0)	ADAS-Cog Language recognition After 4 weeks ([2]; 4% H2 inhaled 15 minutes per day over 4 weeks, baseline 4.2 ± 3.2)	ADAS-Cog Language recognition % change ([2]; after 4 weeks vs baseline)	ADAS-Cog Language reproduction test % change ([2]; after 4 weeks vs baseline)	MMSE Total score % change ([2]; after 4 weeks vs baseline, 4% H2 inhaled 15 minutes per day)	Number of women whose MMSE scores increased ([2]; among 13 women, after administration)	Improvement in ADAS-Cog converted from MMSE (Improvement in MMSE×2.33) ([2]; conversion formula BMC Neurol. 2002, 2:6)	Other 9 items in ADAS-Cog scoring, score ([2]; correctly executed in both tests (baseline and after 4 weeks))	Cognitive functions (result in words) ([2]; elderly women with mild cognitive impairment, 4% hydrogen gas 15 minutes per day over 4 weeks)	Improvement in the MMSE ([2]; inhalation of hydrogen gas for a month)	Adverse events / side effects associated with inhalation [3]	Adverse events / side effects associated with inhalation ([3]; listed as hydrogen gas)
COc1cc2c(cc1OC)C(=O)C(CC1CCN(Cc3ccccc3)CC1)C2 (stereo not shown) [donepezil]	approximately 1.4 points												
[HH] [H2, hydrogen gas]		8.1 ± 1.2	1.1 ± 1.0	−40.1%	140.0%	13.7% and 14.2%	12	8.16 points	0	improved to normal levels	3.50 points	no sign of side effects	no adverse event

From patent US20230226103A1, “COMPOSITION FOR TREATING AND/OR PREVENTING COGNITIVE IMPAIRMENT OR DEMENTIA” (MiZ Company Limited, priority 2018, published 2023)
